Values after ≈ are worked out from the molar mass of the structure shown.
Key:
[1] = test system: Enterococcus faecalis ATCC 29212 (sensitive); assay type: cell-based; conditions: ATCC 29212, 18 h
Procedure: (§1) We screened all five peptides against the ATCC reference strains and the clinical isolates according to Method M7-A7 of the National Committee for Clinical Laboratory Standards (CLSI, [2007]). The MIC50 and MBC values were determined using a broth microdilution and growth inhibition method previously reported by Leon-Calvijo et al. ([2015]), with some modifications (Wiegand et al., [2008]). Briefly, the MIC50 experiments comprised a liquid-inhibition growth assay in a sterile, untreated, 96-well flat-bottom tissue culture plate. The bacteria were cultured overnight n Mueller Hinton agar; three colonies were transferred to 8 mL of Mueller Hilton broth and incubated at 37°C until the mid-exponential phase of growth. The turbidity of the cultures was measured and adjusted spectrophotometrically to a McFarland standard of 0.5, and then diluted to a final concentration of 5 × 10^7 colony forming units (CFU) per well. Stock solutions (2,000 μM) of each test peptide were serially diluted to final concentrations (per well) of 200, 100, 50, 25, 12.5, and 6.25 μM. Each concentration was evaluated in duplicate and each assay was performed in triplicate.
(§2) Wells containing Mueller Hilton broth with bacterial inoculum only served as bacterial-growth controls. Additional controls included Mueller Hilton broth alone (as blank) and Mueller Hilton broth with ciprofloxacin (2 μg/mL; as positive control). The microplate was incubated for 24 h at 37°C, and growth inhibition was measured by monitoring the optical density at 620 nm (OD620). The MIC50 was defined as the peptide concentration at which bacterial growth was inhibited by 50%.
(§3) To determine the MBC, an aliquot from each well of the MIC50 assay was spread onto Mueller Hilton agar. After 18 h at 37°C, the concentration that inhibited bacterial growth was determined. Each of these tests was performed four times. MBC was defined as the lowest concentration of peptide at which the number of bacteria was reduced by 99.9% in vitro (European Committee for Antimicrobial Susceptibility Testing, [2000]).

[2] = test system: Enterococcus faecalis ATCC 51575 (resistant); assay type: cell-based
Procedure: as §1, §2, §3

[3] = test system: Pseudomonas aeruginosa ATCC 10145 (sensitive); assay type: cell-based
Procedure: as §1, §2, §3

[4] = test system: Pseudomonas aeruginosa ATCC 27853 (resistant); assay type: cell-based
Procedure: as §1, §2, §3

[5] = test system: human erythrocytes; assay: Hemolytic activity; assay type: cell-based; conditions: red cells of human, 2 h
Procedure: Human erythrocytes collected from the blood samples of healthy humans were harvested by centrifugation for 7 min at 162 × g and washed three times in phosphate-buffered saline (PBS). The erythrocytes (2% hematocrit in PBS) were incubated with peptide molecules at several concentrations (6.25, 12.5, 25, 50, and 100 μM) for 2 h at 37°C. PBS was used as negative control for hemolysis, and sterile distilled water was used as positive control (100% hemolysis). The plate was subsequently centrifuged at 1,459 × g for 10 min at 4°C. Aliquots of the supernatant from each well (75 μL) were carefully transferred to a new sterile 96-well plate, and hemolytic activity was evaluated by measuring the OD492 using an Asys Expert Plus Microplate reader. The experiments were performed in duplicate, and hemolytic activity was calculated for each peptide.

[6] = test system: Gram-negative ATCC strains (K. pneumoniae 13883 and 700603, P. aeruginosa 10145 and 27853)
Excerpt: We determined the therapeutic index of each peptide, which we defined as the ratio of Maximum Hemolytic Activity (Hmax) to MIC50 (Hmax/MIC50).
The therapeutic index (TI) is a ratio of the toxic dose of a substance to its therapeutically-active dose and can be calculated different ways (e.g., LD50/ED50). Here, we calculated a TI value for each peptide against all the Gram-positive or the Gram-negative ATCC strains, by dividing its Hmax by its MIC50 for the given group of strains. […] Additionally, to make our quantitative analysis more robust [geometric mean (Khachatryan et al., [2017]) and fold values], we have included MIC50 values for these peptides against S. aureus and K. pneumoniae that we previously obtained using the same assay, the M7-A7 method of the National Committee for Clinical Laboratory Standards (Leon-Calvijo et al., [2015]).

MIC50 ([2]; ATCC 51575, 24 h): >200.0 µM | MIC50 ([3]; ATCC 10145, 24 h): 111.7 µM (≈ 223 µg/mL) | MIC50 ([4]; ATCC 27853, 24 h): 99.6 µM (≈ 199 µg/mL) | Gm, geometric mean of MIC50 values [6]: 105.5
SMILES: CSCC[C@H](NC(=O)[C@H](CCCNC(=N)N)NC(=O)[C@H](Cc1c[nH]c2ccccc12)NC(=O)[C@H](CCC(N)=O)NC(=O)[C@H](Cc1c[nH]c2ccccc12)NC(=O)[C@H](CCCNC(=N)N)NC(=O)[C@H](CCCNC(=N)N)NC(=O)[C@H](CS)NC(=O)[C@H](CCCCN)NC(=O)[C@@H](N)Cc1ccccc1)C(=O)N[C@@H](CCCCN)C(=O)N[C@@H](CCCCN)C(=O)N[C@@H](CC(C)C)C(=O)NCC(=O)N[C@@H](C)C(N)=O [LfcinB (17–31), reference compound]
MBC [1]: >200.0 µM | MBC ([2]; ATCC 51575, 18 h): >200.0 µM | MBC ([3]; ATCC 10145, 18 h): >200.0 µM | MBC ([4]; ATCC 27853, 18 h): >200.0 µM | H50, concentration of peptide leading to 50% hemolysis [5]: >100 µM

Source: paper PMC5840262, “Design, Synthesis and Evaluation of Branched RRWQWR-Based Peptides as Antibacterial Agents Against Clinically Relevant Gram-Positive and Gram-Negative Pathogens” (Frontiers in Microbiology, 2018)
